From paper PMC12973313 (Chemical Science, 2026)
Values after ≈ are worked out from the molar mass of the structure shown. Values joined by “and” are separate entries in the source; they are usually repeats but may differ in a detail not shown here. Equal entries are not always repeated. Where two headings read alike, the source gives them in different places.

Experiments:
[1] = 1H NMR DOSY, DMSO-d6 0.5% H2O; assay type: physicochemical; details: 298 K; for dH (nm), hydrodynamic diameter, anionic component: 1H NMR DOSY, DMSO-d6 0.5% H2O, 112 mM; for Hydrodynamic diameter (nm) Cationic component: DMSO-d6/0.5 % H2O
[2] = Quantitative 1H NMR, D2O 5% EtOH (self-association); assay type: physicochemical; details: 5.56 mM, 298 K, proportion NMR silent
Description: However, when supplied as a 1 : 1 enantiomeric mixture, although the trend in increased incorporation of 7 + 9 over 3 + 5 into the higher order aggregate structure was retained from previous observations in polar organic solvents, the total proportion of SSA incorporated into these higher order structures was approximately 20% lower (from ≈ 50% to ≈ 30%) for the 1 : 1 enantiomeric mixture of 3 + 5 over the homogenous solution of those same SSAs.

S. aureus 1199B = assay: microbe, parasite or virus in culture; assay type: cell-based, Staphylococcus aureus; details: for MIC (mM) S. aureus 1199B: lowest concentration with no visible growth; for MIC 1199B: total molecular concentration; for MIC: Staphylococcus aureus, 1199B
Experimental: Next generation SSAs 3, 5, 7, and 9 were specifically designed to increase the activity of SSAs against both drug susceptible and resistant S. aureus and ovarian cancer cells. […] These strains include: (i) USA300, a common clinically relevant, methicillin resistant strain;[47] […]
Section S3: Biological methods […]
Preparation of bacterial plates : Sterile TSB agar plates were streaked using the desired […]
Preparation of inoculum: An initial culture was made up by inoculating TSB (5 mL) with 3 single colonies of the desired bacteria under sterile conditions and incubated at 37 °C overnight. The optical density at 600 nm (OD 600) was adjusted using sterile distilled H 2O (dH2O) to equal ~1 x 10^6 bacteria/mL.
Preparation of 96 -well microplate : A solution of each compound in H2O/5 % EtOH was made […]
The compound solution (200 […]
µL) was added to and diluted 50:50 down the plate. The bacterial suspension (100 µL) was dispensed into each well under sterile conditions. […]

[3] = Cl-/NO3- antiport assay, chloride ISE; assay type: biochemical; details: pH 7.2; for EC50 Cl-/NO3- antiport: 50% chloride efflux after 270 s; for n (Hill coefficient): Hill analysis
Description: Although evidence supports the hypothesis that SSAs are able to act as selective phospholipid membrane coordination and/or disruption agents,[39] to date we have minimal evidence that verifies the role ion transport events may play in the SSA mechanism of biological activity, or the types of transmembrane SSA structures which may be involved in facilitating these events, such as ion channels or membrane pores. Therefore, to confirm the role ion transport may play in the biological activity of SSAs, we explored the ability of SSAs 1, 3, 5, 7, and 9 to mediate ion transport in phospholipid vesicles (Section S17). We initially performed a Cl^−/NO3^− antiport assay.[52] Large unilamellar vesicles composed of 1-palmitoyl-2-oleoyl-sn-glycero-3-phosphocholine (POPC) were prepared containing NaCl (ionic strength = 500 mM) buffered to pH 7.2 with sodium phosphate salts. The vesicles were suspended in NaNO3 (ionic strength = 500 mM) at pH 7.2 (Fig. 4a). On addition of the SSA as a 5 mM DMSO stock solution (which was maintained throughout these experiments to minimise any variation in aggregation state induced by changes in concentration), any resulting chloride efflux was detected using a chloride ion selective electrode (ISE). All of these molecules but compound 1 (Section S17) mediated a modest amount of chloride efflux when added at 10 mol% w.r.t. lipid (Fig. 4b and c)which is surprising given the negative charge of the SSA anion. […] We were unable to observe significant transport activity when these compounds were added as a stock solution dissolved in water (5 mM). […]
Section S3: Biological methods
Preparation of vesicles: A stock solution of 1-palmitoyl-2-oleoyl-sn-glycero-3-phosphocholine (POPC) was prepared by dissolving 1 g of POPC in 35 mL de-acidified CHCl3. The CHCl3 was passed through a column of basic alumina before use. This solution was stored at -20 °C when […]
A lipid film of POPC was prepared by adding 1–4 mL of the above stock solution into a pre-weighed falcon tube and gently removing the CHCl3 under a stream of nitrogen. The lipid film was dried under vacuum overnight. The lipid film was re-hydrated by vortexing with the desired internal buffer solution, then subjected to 9 freeze-thaw cycles. Typically, the lipids were not thawed on the last cycle and were stored at -20 °C for use at a later date.
The lipid was thawed to room temperature and allowed to stand for 30 mins, then extruded 27 times through a 200 nm polycarbonate membrane. The resulting unilamellar vesicles were dialysed against the desired external buffer solution for a minimum of 2 hours.
Transport experiments protocol: The vesicles prepared as described above were diluted to a known volume of 5 mL using the desired external buffer solution. This solution was further diluted into individual 5 mL samples for testing at a final lipid concentration of 1 mM. The transporter was added to the vesicles from a stock solution in DMSO (5 mM) after 30 s in order to initiate the transport and any resulting chloride efflux was monitored using a chloride selective electrode (ISE – Cole Parmer). At the end of the experiment, the vesicles were lysed by the addition of 40 µL Triton-X 100 (10 wt% in H2O). The final electrode reading was taken 2 mins later and used to calibrate 100% chloride efflux. Each experiment was performed 3 […]
Section S17: Ion transport studies
Cl-/NO3- antiport Hill plots – pH 7.2
Internal buffer: 500 mM NaCl buffered to pH 7.2 with 5 mM sodium phosphate salts.
External buffer: 500 mM NaNO3 buffered to pH 7.2 with 5 mM sodium phosphate salts.
Figure S134 - Transport data for the Cl-/NO3- antiport Hill plot experiment with compound 1.
Full Hill analysis was not performed due to the low observed activity of this compound.
(1 picture or pasted object on this page, not shown here)

[4] = system: Galleria mellonella larvae; assay: G. mellonella toxicity assay; assay type: in vivo; details: out of 10, 10 µL of 5 mM in H2O/EtOH 19:1, 37 °C
Experimental: Finally, we gauged the toxicity of SSAs 1, 3, 5, 7, and 9 as either homogenous solutions or heterogenous (1 : 1) enantiomeric mixtures towards multicellular organisms which have an intrinsic immune system.[66] Here, Galleria mellonella larvae were injected with 10 µL of SSA (5 mM) in a distilled H2O/EtOH 19 : 1 solution and then incubated at 37 °C for a maximum of five days and the number of surviving larvae recorded each day. […]. […]
G. mellonella treatment assay: G. mellonella larvae were purchased from Livefood UK Ltd.
(Rooks Bridge, UK) and maintained on wood chips in the dark at 15 °C until use. Galleria
larvae were injected with 10 µL of compound in H2O/5 % EtOH, incubated at 37 °C for 5 days
and the deaths counted. Groups of 10 Galleria were injected per compound. […]

[5] = 15 h, read-out: MIC 1199B, total molecular concentration, after 900 min
[6] = read-out: MIC (mM) S. aureus 1199B, lowest concentration with no visible growth

CC(C)CC(NC(=O)Nc1ccc(C(F)(F)F)cc1)C(=O)O (centres unmarked) [SSA 3]
dH (nm), hydrodynamic diameter, anionic component ([1]; listed as 3): 1.66 nm and 1.7 nm | Hydrodynamic diameter (nm) Cationic component ([1]; listed as 3): 1.26 nm | Q NMR (%) SSA anion ([2]; listed as 3): 50% | Q NMR (%) SSA cation ([2]; listed as 3): 44% | MIC (mM) S. aureus 1199B (S. aureus 1199B; listed as 3): 0.087 mM (≈ 27.7 µg/mL) | MIC 1199B (S. aureus 1199B; after 900 min, listed as 3): 87 µM (≈ 27.7 µg/mL) | EC50 Cl-/NO3- antiport [3]: > 15 mol% w.r.t. lipid | n (Hill coefficient) ([3]; listed as 3): 1.4 | Galleria moth larvae survived Day 2 [4]: 9 | Galleria moth larvae survived Day 1 ([4]; listed as 3): 9 | Galleria moth larvae survived Day 3 ([4]; listed as 3): 9 | Galleria moth larvae survived Day 4 ([4]; listed as 3): 6 | Galleria moth larvae survived Day 5 ([4]; listed as 3): 5

CC(C)CC(NC(=O)Nc1ccc(C(F)(F)F)cc1)C(=O)O (centres unmarked) [SSA 5]
dH (nm), hydrodynamic diameter, anionic component ([1]; listed as 5): 1.70 nm and 1.7 nm | Hydrodynamic diameter (nm) Cationic component ([1]; listed as 5): 1.28 nm | Q NMR (%) SSA anion ([2]; listed as 5): 52% | Q NMR (%) SSA cation ([2]; listed as 5): 48% | MIC (mM) S. aureus 1199B (S. aureus 1199B; listed as 5): 2.780 mM (≈ 885 µg/mL) | MIC 1199B (S. aureus 1199B; after 900 min, listed as 5): 2780 µM (≈ 885 µg/mL) | EC50 Cl-/NO3- antiport [3]: > 15 mol% w.r.t. lipid | n (Hill coefficient) ([3]; listed as 5): 1.7 | Galleria moth larvae survived Day 2 [4]: 9 | Galleria moth larvae survived Day 1 ([4]; listed as 5): 10 | Galleria moth larvae survived Day 3 ([4]; listed as 5): 8 | Galleria moth larvae survived Day 4 ([4]; listed as 5): 8 | Galleria moth larvae survived Day 5 ([4]; listed as 5): 8

O=C(O)CNC(=O)Nc1ccc(C(F)(F)F)cc1 [SSA 1]
MIC (S. aureus 1199B; [5]): > 2.78 mM | MIC (S. aureus 1199B; [6]): > 2.78 mM | Galleria moth larvae survived Day 1 [4]: 10 | Galleria moth larvae survived Day 2 [4]: 9 | Galleria moth larvae survived Day 3 [4]: 8 | Galleria moth larvae survived Day 4 [4]: 6 | Galleria moth larvae survived Day 5 [4]: 6

O=C(Nc1ccc(C(F)(F)F)cc1)N[C@@H](Cc1ccccc1)C(=O)O [SSA 7]
dH (nm), hydrodynamic diameter, anionic component [1]: 1.70 nm and 1.7 nm | Hydrodynamic diameter (nm) Cationic component [1]: 1.27 nm | Q NMR (%) SSA anion [2]: 51% | Q NMR (%) SSA cation [2]: 48% | MIC (S. aureus 1199B; [5]): 0.174 mM (≈ 61.3 µg/mL) | MIC (S. aureus 1199B; [6]): 0.174 mM (≈ 61.3 µg/mL) | EC50 Cl-/NO3- antiport [3]: > 15 mol% w.r.t. lipid | n (Hill coefficient) [3]: 1.4 | Galleria moth larvae survived Day 1 [4]: 10 | Galleria moth larvae survived Day 2 [4]: 4 | Galleria moth larvae survived Day 3 [4]: 4 | Galleria moth larvae survived Day 4 [4]: 4 | Galleria moth larvae survived Day 5 [4]: 4

O=C(Nc1ccc(C(F)(F)F)cc1)N[C@H](Cc1ccccc1)C(=O)O [SSA 9]
dH (nm), hydrodynamic diameter, anionic component [1]: 1.67 nm and 1.7 nm | Hydrodynamic diameter (nm) Cationic component [1]: 1.24 nm | Q NMR (%) SSA anion [2]: 58% | Q NMR (%) SSA cation [2]: 53% | MIC (S. aureus 1199B; [5]): 0.174 mM (≈ 61.3 µg/mL) | MIC (S. aureus 1199B; [6]): 0.174 mM (≈ 61.3 µg/mL) | EC50 Cl-/NO3- antiport [3]: > 15 mol% w.r.t. lipid | n (Hill coefficient) [3]: 1.3 | Galleria moth larvae survived Day 1 [4]: 9 | Galleria moth larvae survived Day 2 [4]: 9 | Galleria moth larvae survived Day 3 [4]: 9 | Galleria moth larvae survived Day 4 [4]: 7 | Galleria moth larvae survived Day 5 [4]: 5
